Test results published in ChEMBL document CHEMBL3727342, “Compounds and methods for kinase modulation, and indications therefor” (2012).

Experiments:
[1] = biological target: Proto-oncogene tyrosine-protein kinase Src (Homo sapiens, UniProt P12931); test: Inhibition of Src (unknown origin) expressed in Escherichia coli using biotin-(E4Y)3 substrate
[2] = biological target: Mast/stem cell growth factor receptor Kit (Homo sapiens, UniProt P10721); test: Inhibition of Kit (unknown origin) expressed in Escherichia coli
Mast/stem cell growth factor receptor Kit, sequence (P10721 whole entry): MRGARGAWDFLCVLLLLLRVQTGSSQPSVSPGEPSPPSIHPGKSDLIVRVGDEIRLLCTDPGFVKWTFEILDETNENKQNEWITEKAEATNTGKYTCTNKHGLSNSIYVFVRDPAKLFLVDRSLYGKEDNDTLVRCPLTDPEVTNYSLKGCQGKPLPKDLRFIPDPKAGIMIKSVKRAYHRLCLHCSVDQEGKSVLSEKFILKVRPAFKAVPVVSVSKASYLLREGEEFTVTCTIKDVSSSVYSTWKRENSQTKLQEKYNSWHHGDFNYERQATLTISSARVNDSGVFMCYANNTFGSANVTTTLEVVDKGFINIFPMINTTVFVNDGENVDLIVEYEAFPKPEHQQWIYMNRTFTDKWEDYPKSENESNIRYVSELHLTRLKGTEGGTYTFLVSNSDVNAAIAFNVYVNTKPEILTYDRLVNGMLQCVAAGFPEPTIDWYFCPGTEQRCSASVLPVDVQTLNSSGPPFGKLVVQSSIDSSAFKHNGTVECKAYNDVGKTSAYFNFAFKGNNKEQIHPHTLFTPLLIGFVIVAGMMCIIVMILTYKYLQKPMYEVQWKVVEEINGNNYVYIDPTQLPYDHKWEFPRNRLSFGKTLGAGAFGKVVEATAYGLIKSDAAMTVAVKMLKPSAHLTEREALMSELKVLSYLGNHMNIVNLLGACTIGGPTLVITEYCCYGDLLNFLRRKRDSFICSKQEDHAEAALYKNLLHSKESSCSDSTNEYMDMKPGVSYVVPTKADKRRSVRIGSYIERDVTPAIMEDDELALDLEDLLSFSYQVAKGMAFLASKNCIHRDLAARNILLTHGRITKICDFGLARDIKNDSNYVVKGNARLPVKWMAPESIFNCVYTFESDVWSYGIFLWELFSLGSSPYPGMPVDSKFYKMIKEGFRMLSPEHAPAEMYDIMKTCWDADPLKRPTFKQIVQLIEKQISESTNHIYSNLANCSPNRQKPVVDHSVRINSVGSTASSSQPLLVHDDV

[3] = biological target: Serine/threonine-protein kinase B-raf (Homo sapiens, UniProt P15056); test: Inhibition of N-terminal GST-tagged human recombinant B-Raf (416 to end residues) using biotin-MEK1 substrate incubated for 1 hr
Serine/threonine-protein kinase B-raf, sequence (P15056 whole entry): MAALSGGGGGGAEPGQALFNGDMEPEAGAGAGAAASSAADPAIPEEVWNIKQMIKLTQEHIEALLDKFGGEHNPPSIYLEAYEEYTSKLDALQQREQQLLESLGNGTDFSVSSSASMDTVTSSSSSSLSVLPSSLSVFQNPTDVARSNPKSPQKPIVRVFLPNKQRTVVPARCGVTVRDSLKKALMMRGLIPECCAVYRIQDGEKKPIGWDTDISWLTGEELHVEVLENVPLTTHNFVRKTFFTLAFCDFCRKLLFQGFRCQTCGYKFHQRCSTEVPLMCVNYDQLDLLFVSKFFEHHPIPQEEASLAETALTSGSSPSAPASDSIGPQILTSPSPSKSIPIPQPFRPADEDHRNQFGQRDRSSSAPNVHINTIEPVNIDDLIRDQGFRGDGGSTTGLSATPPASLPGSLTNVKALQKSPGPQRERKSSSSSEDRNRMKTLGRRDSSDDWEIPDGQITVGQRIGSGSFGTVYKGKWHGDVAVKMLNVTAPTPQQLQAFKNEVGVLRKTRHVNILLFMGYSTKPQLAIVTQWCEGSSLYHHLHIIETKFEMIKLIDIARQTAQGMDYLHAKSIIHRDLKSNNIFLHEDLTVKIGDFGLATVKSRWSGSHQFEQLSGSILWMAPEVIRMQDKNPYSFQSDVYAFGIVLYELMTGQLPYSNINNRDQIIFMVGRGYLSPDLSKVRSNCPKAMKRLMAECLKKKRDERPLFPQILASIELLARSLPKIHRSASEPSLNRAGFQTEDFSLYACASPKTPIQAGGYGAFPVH

[4] = biological target: Tyrosine-protein kinase BTK (Homo sapiens, UniProt Q06187); test: Inhibition of Btk (unknown origin) by FRET assay
Tyrosine-protein kinase BTK, sequence (Q06187 whole entry): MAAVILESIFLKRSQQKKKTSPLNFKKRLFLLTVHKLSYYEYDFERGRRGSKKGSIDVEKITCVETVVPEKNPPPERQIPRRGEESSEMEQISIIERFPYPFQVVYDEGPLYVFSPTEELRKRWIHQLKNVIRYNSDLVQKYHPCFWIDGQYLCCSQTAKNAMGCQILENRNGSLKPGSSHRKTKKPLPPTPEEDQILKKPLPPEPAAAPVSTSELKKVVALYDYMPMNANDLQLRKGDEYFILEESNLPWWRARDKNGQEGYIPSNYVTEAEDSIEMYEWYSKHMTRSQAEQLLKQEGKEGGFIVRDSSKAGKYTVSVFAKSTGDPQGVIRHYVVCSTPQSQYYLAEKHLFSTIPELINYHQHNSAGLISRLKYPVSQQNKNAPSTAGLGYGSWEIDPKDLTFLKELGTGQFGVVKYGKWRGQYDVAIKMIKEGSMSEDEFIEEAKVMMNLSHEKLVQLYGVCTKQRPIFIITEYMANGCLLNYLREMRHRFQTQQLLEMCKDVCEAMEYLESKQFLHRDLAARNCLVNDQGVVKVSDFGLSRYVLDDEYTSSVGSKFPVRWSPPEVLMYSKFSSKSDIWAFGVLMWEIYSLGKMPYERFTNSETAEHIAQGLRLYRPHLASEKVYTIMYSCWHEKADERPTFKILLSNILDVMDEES

[5] = biological target: Vascular endothelial growth factor receptor 2 (Homo sapiens, UniProt P35968); test: Inhibition of KDR (unknown origin) by FRET assay
Vascular endothelial growth factor receptor 2, sequence (P35968 whole entry): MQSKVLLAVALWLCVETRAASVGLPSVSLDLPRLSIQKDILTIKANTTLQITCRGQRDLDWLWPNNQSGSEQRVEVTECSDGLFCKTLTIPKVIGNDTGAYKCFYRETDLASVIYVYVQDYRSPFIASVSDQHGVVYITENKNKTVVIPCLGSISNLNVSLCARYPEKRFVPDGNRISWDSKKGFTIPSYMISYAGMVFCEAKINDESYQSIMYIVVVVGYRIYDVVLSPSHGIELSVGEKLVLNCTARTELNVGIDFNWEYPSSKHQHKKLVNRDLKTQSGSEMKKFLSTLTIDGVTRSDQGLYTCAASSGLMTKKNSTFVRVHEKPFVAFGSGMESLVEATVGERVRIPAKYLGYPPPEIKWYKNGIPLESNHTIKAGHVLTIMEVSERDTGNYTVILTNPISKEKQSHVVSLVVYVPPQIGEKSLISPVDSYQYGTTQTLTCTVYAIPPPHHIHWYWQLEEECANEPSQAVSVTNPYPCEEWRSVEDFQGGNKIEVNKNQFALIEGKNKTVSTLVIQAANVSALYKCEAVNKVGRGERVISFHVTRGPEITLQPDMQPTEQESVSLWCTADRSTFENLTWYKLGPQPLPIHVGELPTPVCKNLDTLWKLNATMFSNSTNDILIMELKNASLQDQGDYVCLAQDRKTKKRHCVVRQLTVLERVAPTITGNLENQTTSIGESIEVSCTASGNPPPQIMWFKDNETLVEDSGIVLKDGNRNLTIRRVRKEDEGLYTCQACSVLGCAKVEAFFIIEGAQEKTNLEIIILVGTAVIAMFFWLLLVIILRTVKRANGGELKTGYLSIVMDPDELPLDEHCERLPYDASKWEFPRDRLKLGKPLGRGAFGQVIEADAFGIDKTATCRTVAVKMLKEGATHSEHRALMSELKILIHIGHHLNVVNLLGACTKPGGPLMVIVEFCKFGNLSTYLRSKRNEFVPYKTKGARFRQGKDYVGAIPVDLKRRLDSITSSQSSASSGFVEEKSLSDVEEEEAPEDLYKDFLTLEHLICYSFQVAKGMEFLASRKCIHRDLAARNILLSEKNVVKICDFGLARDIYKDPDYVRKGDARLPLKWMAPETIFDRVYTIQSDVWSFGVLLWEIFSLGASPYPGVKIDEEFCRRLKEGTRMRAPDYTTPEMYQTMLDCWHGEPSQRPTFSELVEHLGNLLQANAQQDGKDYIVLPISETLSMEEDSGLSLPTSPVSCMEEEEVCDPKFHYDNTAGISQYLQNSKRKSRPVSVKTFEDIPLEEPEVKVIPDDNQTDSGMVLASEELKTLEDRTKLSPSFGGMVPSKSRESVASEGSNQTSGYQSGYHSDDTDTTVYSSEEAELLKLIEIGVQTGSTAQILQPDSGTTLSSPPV

[6] = biological target: RAF proto-oncogene serine/threonine-protein kinase (Homo sapiens, UniProt P04049); test: Inhibition of human C-raf using biotin-MEK1 substrate incubated for 1 hr
RAF proto-oncogene serine/threonine-protein kinase, sequence (P04049 whole entry): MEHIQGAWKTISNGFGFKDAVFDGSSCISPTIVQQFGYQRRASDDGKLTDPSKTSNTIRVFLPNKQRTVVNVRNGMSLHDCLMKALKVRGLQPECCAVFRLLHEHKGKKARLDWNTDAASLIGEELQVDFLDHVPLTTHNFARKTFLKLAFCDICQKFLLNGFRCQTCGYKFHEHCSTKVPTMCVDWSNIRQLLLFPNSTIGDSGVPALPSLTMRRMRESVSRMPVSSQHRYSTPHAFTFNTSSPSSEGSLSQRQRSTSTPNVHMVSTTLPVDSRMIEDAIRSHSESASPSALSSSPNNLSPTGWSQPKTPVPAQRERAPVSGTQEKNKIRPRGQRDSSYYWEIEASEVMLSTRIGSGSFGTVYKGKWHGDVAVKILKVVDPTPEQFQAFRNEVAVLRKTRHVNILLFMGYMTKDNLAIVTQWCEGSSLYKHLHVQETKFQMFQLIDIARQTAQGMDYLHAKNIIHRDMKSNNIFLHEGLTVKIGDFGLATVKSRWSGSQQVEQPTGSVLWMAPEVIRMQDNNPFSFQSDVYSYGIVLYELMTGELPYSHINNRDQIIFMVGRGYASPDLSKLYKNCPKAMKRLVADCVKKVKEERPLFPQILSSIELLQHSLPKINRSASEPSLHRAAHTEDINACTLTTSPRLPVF

Measured: IC50

Proto-oncogene tyrosine-protein kinase Src, sequence (P12931 2-536 limits assumed): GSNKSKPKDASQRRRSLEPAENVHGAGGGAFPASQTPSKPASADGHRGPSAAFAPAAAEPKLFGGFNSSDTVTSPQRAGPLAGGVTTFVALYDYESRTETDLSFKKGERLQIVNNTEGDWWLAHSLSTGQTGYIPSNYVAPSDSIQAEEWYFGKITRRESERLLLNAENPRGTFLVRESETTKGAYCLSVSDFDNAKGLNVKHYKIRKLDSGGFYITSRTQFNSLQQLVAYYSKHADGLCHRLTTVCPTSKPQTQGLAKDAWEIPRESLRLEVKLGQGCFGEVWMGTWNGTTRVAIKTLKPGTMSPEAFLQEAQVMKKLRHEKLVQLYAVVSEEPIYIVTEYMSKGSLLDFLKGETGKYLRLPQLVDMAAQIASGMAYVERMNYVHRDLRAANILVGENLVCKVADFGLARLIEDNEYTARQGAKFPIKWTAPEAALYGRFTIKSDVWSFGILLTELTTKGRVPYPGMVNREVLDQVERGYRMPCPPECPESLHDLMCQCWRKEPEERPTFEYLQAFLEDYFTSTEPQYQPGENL

O=C(c1cccc(NS(=O)(=O)c2c(F)cccc2F)c1F)c1c[nH]c2ncncc12
≤ 10 µM: all assays above
